The source of these data is US20230321059A1, “MEPYRAMINE FOR USE IN THE TOPICAL TREATMENT OF NEUROPATHIC PAIN” (Assistance Publique - Hopitaux de Paris, priority 2020, published 2023).

In this test the target is T1, human Nav1.7 (Homo sapiens, UniProt Q15858).
T1 construct: expressed in transfected cells; host or cells: HEK 293T
Nature of the test: Patch clamp recording of heterologously expressed human Nav1.7 currents in HEK 293T cells. Type of test: cell-based. The conditions noted are these: for IC50: 50-ms depolarizing pulse to 0 mV, HEK 293T cells, mean±SEM (n=4-10), read-out: IC50 for human Nav1.7 inhibition. As to the method: FIG. 1. A) Families of human Nav1.7 current traces in the presence of increasing concentrations of mepyramine (0-100 μM). The current was elicited by a 50-ms depolarizing pulse to 0 mV from a holding potential of −100 mV (top) or −60 mV (bottom). Voltage steps were applied every 15 s. B) Cumulative dose-response curves for human Nav1.7 inhibition by mepyramine derived from experiments as in A. The IC50 values were 4±0.1 μM at Vh of −60 mV (empty circles) or 15.3±0.1 μM at Vh of −100 mV (filled circles). Each data point is the mean±SEM (n=4-10). C) Representative I-V curve family of hNav1.7 currents recorded using a protocol (inset) where cells were depolarized to a variety of potentials from a holding potential of −100 mV. D) Normalized human Nav1.7 activation curves obtained from experiments as in C. Curves were fit by using a first-order Boltzmann relations (n=16).
Human embryonic kidney (HEK) 293T cells were cultured as described in Hao et al. (Neuron, 2013, 77:899-914) and were recorded 48 hours after co-transfection with human Nav1.7 (hNav1.7) and green fluorescent protein clones. Patch clamp recordings were performed using borosilicate electrodes (Harvard Apparatus) having a resistance of […] when filled with the intracellular solution. Recordings were made at room temperature (20-24° C.) using an Axopatch 200B amplifier (Axon Instruments), filtered at 1 kHz, and digitally sampled at 5-20 kHz. Data acquisition was performed with pClamp 10.2, and data were analyzed using Prism 4 software.
For voltage clamp protocols, currents were leak-subtracted by using a P/6 protocol. Voltage errors were minimized using 75-80% series resistance compensation. Intracellular pipette solution consisted of (mM): 130 CsCl, 10 Hepes, 8 NaCl, 0.4 NaGTP, 4 MgATP, 1 MgCl2, 1 CaCl2 and 10 EGTA (adjusted to pH7.3 with CsOH, ˜300 mOsm/l). […] Stock solution of Mepyramine […] was dissolved in distilled water. Cells were perfused with bath solution at flow rate of 5 mL/min.
The dose-response curve for mepyramine was fitted with the Hill equation: I/Imax=[M]^nH/(IC50^nH+[M]^nH), where IC50 is the half-maximal inhibitory concentration and nH the Hill coefficient. The activation curve (G-V) was fitted using Boltzmann function: G/Gmax=1/(1+exp^[(V1/2−V)/k]) where G/Gmax is the normalized conductance, V1/2 is the voltage of half-maximum conductance activation, and k is the steepness factor. Data were presented as mean±SEM.

The mark [1] stands for this setting: HEK cells, in the absence of histamine and in the absence of H1 receptors.

Read-outs that look alike come from different tables or passages of the source.

T1 sequence (Q15858 whole entry): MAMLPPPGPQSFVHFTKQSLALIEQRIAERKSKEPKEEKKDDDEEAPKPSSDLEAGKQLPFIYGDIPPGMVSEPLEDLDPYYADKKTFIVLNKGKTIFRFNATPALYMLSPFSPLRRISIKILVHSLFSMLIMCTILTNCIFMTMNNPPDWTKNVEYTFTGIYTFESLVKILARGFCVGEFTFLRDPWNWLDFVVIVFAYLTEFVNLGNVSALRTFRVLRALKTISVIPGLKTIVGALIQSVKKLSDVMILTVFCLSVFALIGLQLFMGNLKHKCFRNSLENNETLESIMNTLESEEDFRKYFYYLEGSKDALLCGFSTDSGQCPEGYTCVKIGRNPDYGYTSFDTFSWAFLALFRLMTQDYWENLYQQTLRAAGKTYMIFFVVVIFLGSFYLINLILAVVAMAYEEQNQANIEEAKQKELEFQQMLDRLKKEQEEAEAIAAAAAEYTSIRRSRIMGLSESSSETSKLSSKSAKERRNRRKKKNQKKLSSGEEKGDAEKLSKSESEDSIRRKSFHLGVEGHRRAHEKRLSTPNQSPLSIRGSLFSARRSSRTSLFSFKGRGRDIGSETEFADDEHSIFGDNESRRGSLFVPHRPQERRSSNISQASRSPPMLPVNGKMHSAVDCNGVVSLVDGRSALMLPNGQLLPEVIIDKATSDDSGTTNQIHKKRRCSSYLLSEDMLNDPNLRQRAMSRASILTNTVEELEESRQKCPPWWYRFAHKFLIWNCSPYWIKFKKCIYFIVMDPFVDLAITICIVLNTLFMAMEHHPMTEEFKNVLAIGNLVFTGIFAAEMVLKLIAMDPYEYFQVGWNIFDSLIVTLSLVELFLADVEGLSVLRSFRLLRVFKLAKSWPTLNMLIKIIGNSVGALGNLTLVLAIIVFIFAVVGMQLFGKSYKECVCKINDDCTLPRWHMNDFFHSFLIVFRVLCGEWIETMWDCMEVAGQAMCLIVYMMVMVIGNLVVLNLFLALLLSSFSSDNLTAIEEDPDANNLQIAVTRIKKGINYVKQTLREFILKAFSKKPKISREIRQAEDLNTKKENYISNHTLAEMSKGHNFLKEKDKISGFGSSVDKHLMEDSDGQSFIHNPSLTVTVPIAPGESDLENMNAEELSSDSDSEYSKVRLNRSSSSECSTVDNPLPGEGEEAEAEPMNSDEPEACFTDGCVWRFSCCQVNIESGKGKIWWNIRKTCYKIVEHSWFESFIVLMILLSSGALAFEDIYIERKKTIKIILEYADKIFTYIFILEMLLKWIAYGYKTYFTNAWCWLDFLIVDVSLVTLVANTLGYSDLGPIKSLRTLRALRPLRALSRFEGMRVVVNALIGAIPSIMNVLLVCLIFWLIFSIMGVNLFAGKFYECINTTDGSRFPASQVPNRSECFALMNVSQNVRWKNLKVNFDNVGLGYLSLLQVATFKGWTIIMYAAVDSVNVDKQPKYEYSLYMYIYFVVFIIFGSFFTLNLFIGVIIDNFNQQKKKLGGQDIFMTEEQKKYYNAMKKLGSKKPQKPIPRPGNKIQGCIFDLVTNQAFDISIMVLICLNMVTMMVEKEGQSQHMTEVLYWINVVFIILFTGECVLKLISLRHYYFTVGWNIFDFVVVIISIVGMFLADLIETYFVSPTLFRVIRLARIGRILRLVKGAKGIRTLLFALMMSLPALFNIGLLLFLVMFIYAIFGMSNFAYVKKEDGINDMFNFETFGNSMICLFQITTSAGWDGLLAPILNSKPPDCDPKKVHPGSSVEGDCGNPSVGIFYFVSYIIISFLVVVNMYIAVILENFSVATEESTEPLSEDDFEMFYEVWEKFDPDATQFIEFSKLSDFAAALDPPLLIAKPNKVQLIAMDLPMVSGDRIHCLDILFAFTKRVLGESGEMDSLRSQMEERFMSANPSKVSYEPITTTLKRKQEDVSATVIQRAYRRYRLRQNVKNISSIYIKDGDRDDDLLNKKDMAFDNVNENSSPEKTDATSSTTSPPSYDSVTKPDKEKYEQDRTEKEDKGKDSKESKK

For the molecule `COc1ccc(CN(CCN(C)C)c2ccccn2)cc1` [mepyramine, N,N-dimethyl-N′-(4-methoxybenzyl)-N′-(2-pyridyl) ethylenediamine], under setting [1], the “Dependence of the effect on H1 receptors” value was “independent of the H1 receptors” and the “Inhibition of heterologously expressed human Nav1.7 channels” value is listed as “inhibits”. The IC50 (usually the concentration needed to halve the response being measured) (Vh of −60 mV) is 4 ± 0.1 µM. The IC50 (Vh of −100 mV) stood at 15.3 ± 0.1 µM.
